Data set [1] deals with guinea pig. Kind of data set: Takagi's technique: coughing by mechanical stimulation of the tracheal bifurcation in the unanesthetized guinea pig. The note with it: 50 mg/kg i.p.; for Cough rating, m = average of the ratings, after treatment: 1 heavy, 0.5 light, 0 no cough. Format: in vivo. Here is the method: A second method using a different type of stimulation of coughs made it possible to note, as compared with codeine, the antitussive properties of the main components claimed.
The technique employed is derived from Takagi's technique, and consists in causing coughing by mechanical stimulation of the tracheal bifurcation in the unanesthetized guinea pig.
The cough is evaluated by the research worker in accordance with the following scale:
The products are administered intraperitoneally and the stimulation is effected 10 and 20 minutes after the injection.

A short description of data set [2]: Solubility characteristics. Format: physicochemical. The note with it: for Solubility in water / solubility: water.
The nature of data set [3]: in vivo. The note with it: mouse, in vivo, mice, isotonic aqueous solution. As to the method:
(§1) It is determined on mice, the products being administered orally, intraperitoneally, and intraveneously in isotonic aqueous solution.

The subject of data set [4] is mice. As to the kind of experiment: in vivo. The note with it: isotonic aqueous solution. As to the method: as §1
The subject of data set [5] is guinea pigs. As to the kind of experiment: Citric acid aerosol method on guinea pigs (antitussive). Format: in vivo. The note with it: for % decrease in no. coughs in 15 mins.: orally, citric acid aerosol; for change in vivo at 50 mg/kg: Cavia porcellus, ip, 0.25 h, 50 mg/kg i.p., 20 minutes before 20% citric acid aerosol, read-out: % reduction of no. of coughs in 15 minutes. As to the method: The animals were subjected to a 20% citric acid aerosol for 15 minutes.
The coughs were recorded by a microphone.
The products were administered intraperitoneally 20 minutes before the exposure to the aerosol.
Some derivatives were also tested orally.

In data set [6] the test system is Pseudomonas aeruginosa. As to the kind of experiment: Fungistatic/bacteriostatic effect, Pseudomonas aeruginosa. It counts as cell-based. The note with it: compared with S. aureus and E. coli. As to the method: (§2) The determination of fungistatic bacteriostatic properties was carried out by two methods on four strains:
(§3) Halved serial dilutions are formed in a hemoylsis tube, in each case to a volume of 1 ml; each dilution is inoculated with 10^6 micro-organisms per ml. After 48 hours in the oven, the minimum inhibitory concentration is determined. A subculture of the negative tubes (bacteriostatic), makes it possible to note the bactericidal concentration.

The subject of data set [7] is Candida albicans. Kind of data set: Fungistatic/bacteriostatic effect, Candida albicans. It counts as cell-based. The note with it: compared with S. aureus and E. coli. Here is the method: as §2, §3
Data set [8] deals with micro-organisms. As to the kind of experiment: Bactericidal action (subculture of the negative tubes). It counts as cell-based. The note with it: at concentrations of 1 g percent. As to the method:
as §2, §3

Data set [9] is described as follows: Local anesthesia activity. The note with it: compared with procaine.
[10] abbreviates: iv, intravenous, read-out: DL 50 intravenous.
The mark [11] stands for this setting: ip, intraperitoneal, read-out: DL 50 intraperitoneal.

Counter-ions that a name gives are not always drawn. Like-named read-outs stand apart in the source and are kept apart here.

This note sets out measurements from patent US4122199A, “Amides of pyrrolidinoethylamine which can be used in treatment of coughs” (Pierre Fabre S.A., priority 1976, dated 1978).

Take `COc1ccc2c3c1O[C@H]1[C@@H](O)C=C[C@H]4[C@@H](C2)N(C)CC[C@@]341` [CODEINE, codeine, reference compound]: the “% variation of cough rating” value in data set [1] (t + 10 mn) is listed as -22%; in data set [1] (t + 20 mn), -30%. Also, the “Cough rating, m = average of the ratings, after treatment” value (“Cough rating, m = average” below) in [1] (t + 10 mn) is 0,75; in data set [1] (t + 20 mn), 0,67.
In the case of `Cc1cc(Br)cc(C(=O)NCCN2CCCC2)c1O` [Example 9, N(2'-pyrrolidino-ethyl)-5-bromo-3-methyl-salicylamide hydrochloride], in data set [2] (% soluble), the Solubility in ethanol was 3% and the “Solubility in propylene glycol” value stood at 7%. Besides, in data set [2] (in words), the Solubility in ether entry is “insoluble” and the Solubility in water result is on record as “very soluble”.
Turning to `O=C(NCCN1CCCC1)c1cc2ccccc2oc1=O` [Example 14, N(2'-pyrrolidino-ethyl)-3-coumarin-carboxamide hydrochloride], in data set [2] (% soluble), the Solubility in ethanol is recorded as 4% and the “Solubility in propylene glycol” value is reported as 7%. Besides, the Solubility in water entry in data set [2] (in words) was “very soluble”.
On to `O=C(NCCN1CCCC1)C(c1ccccc1)c1ccccc1` [F 1459, N(2'-pyrrolidino-ethyl)-α,α-diphenyl acetamide hydrochloride], for which, in data set [2] (% soluble), the Solubility in ethanol is 5%, the “Solubility in propylene glycol” value is listed as 3% and the solubility amounted to 250 mg/mL. For the same compound, in data set [3] (setting [10]), the LD50 worked out at 48 mg/kg. Also, in [4] (hydrochloride), the “DL 50 oral” value turned out to be 562 mg/kg. In [5] (50 mg/kg, hydrochloride), the “% decrease in no. coughs in 15 mins.” value was -31. In [1] (t + 10 mn), the “% variation of cough rating” value is recorded as -32% and the “Cough rating, m = average” value is 0,67. In data set [1] (t + 20 mn), the “% variation of cough rating” value is -66% and the “Cough rating, m = average” value is 0,33. In data set [6], the “effect on Pseudomonas aeruginosa” value is “more moderate but significant effect”. Further, the “effect on Candida albicans” value in data set [7] is “more moderate but significant effect”. For the same compound, in [8], the bactericidal action entry is “real and significant”.
`CCOC(C(=O)NCCN1CCCC1)(c1ccccc1)c1ccccc1` [F 1460, N(2-pyrrolidino-ethyl)-α,α-diphenyl-α-ethoxy-acetamide hydrochloride] showed a Solubility in ethanol in data set [2] (% soluble) of 4%. The Solubility in ether entry in [2] (in words) is “insoluble”. The compound also yielded a solubility in [2] (% soluble) of 10 mg/mL. Also, the LD50 in data set [3] (setting [11]) was 178 mg/kg; in data set [3] (setting [10]), 40 mg/kg; in data set [3] (po, oral, read-out: DL 50 oral), 750 mg/kg.
For the compound `O=C(NCCN1CCCC1)N1c2ccccc2Sc2ccccc21` [F 1461, N(2'-pyrrolidino-ethyl)-10-phenothiazine carboxamide hydrochloride], the “Solubility in N-methyl pyrrolidone” value in [2] (N-methyl pyrrolidone, % soluble) came to 10%. Besides, in data set [2] (% soluble), the Solubility in ethanol came out at 10%. Besides, in data set [2] (% soluble), the “Solubility in propylene glycol” value was found to be 10%. The solubility in [2] (% soluble) came to 100 mg/mL. In addition, the LD50 in data set [3] (setting [11]) was 178 mg/kg; in data set [3] (setting [10]), 26 mg/kg; in data set [3] (po, oral, read-out: DL 50 oral), 560 mg/kg. The results for the “% decrease in no. coughs in 15 mins.” value in [5] (50 mg/kg) and in [5] (100 mg/kg) were -12 and -25, respectively. Besides, the “% variation of cough rating” value was -35% in data set [1] (t + 10 mn) and -55% in [1] (t + 20 mn). Also, the figures for the “Cough rating, m = average” value in data set [1] (t + 10 mn) and in data set [1] (t + 20 mn) were 0,54 and 0,37, respectively.
Take `C=CCOc1c(C)cc(Br)cc1C(=O)NCCN1CCCC1` [F 1479, N(2'-pyrrolidino-ethyl)-2-allyloxy-5-bromo-3-methyl benzamide hydrochloride]: the Solubility in water result in data set [2] (in words) is “very soluble”.
Turning to `O=C(NCCN1CCCC1)C1c2ccccc2-c2ccccc21` [F 1532, N(2'-pyrrolidino-ethyl)-9-fluoroene-carboxamide hydrochloride], in data set [2] (in words), the Solubility in ethanol result was “very soluble”, the “Solubility in propylene glycol” value is “very soluble” and the Solubility in water entry was “very soluble”. Besides, the LD50 in [3] (setting [11]) was found to be 75 mg/kg. For the same compound, the LD50 in [3] (po, oral, read-out: DL 50 oral) was 178 mg/kg. In addition, in [6], the “effect on Pseudomonas aeruginosa” value is recorded as “more moderate but significant effect”. Besides, in [7], the “effect on Candida albicans” value is listed as “more moderate but significant effect”. The bactericidal action result in data set [8] is “real and significant”.
Regarding `O=C(NCCN1CCCC1)C(c1ccccc1)N1CCCCC1` (stereo not drawn) [F 1533, N(2'-pyrrolidino-ethyl)phenyl piperidino-acetamide], in [2] (in words), the Solubility in ethanol entry is listed as “Very soluble” and the Solubility in water entry was “insoluble”. Besides, the LD50 in [3] (setting [11]) was determined as 178 mg/kg. Moreover, the LD50 in data set [3] (po, oral, read-out: DL 50 oral) is 750 mg/kg. In addition, the change in vivo at 50 mg/kg in [5] is -7%. For the same compound, the “effect on Pseudomonas aeruginosa” value in data set [6] is reported as “more moderate but significant effect”. In addition, in data set [7], the “effect on Candida albicans” value was “more moderate but significant effect”. Besides, the bactericidal action entry in data set [8] was “real and significant”.
Turning to `O=C(NCCN1CCCC1)C(O)(c1ccccc1)c1ccccc1` [F 1535, N(2'-pyrrolidino-ethyl)-α,α-diphenyl-hydroxy-acetamide hydrochloride], the Solubility in water result in data set [2] (in words) is “very soluble”. Also, the LD50 in data set [3] (setting [11]) amounted to 237 mg/kg; in data set [3] (oral, read-out: DL 50 oral), 562 mg/kg. In addition, the local anesthesia activity entry in [9] is “high order of local anesthesia activity comparable to that of procaine”.
For the compound `O=C(O)c1ccccc1C(=O)NCCN1CCCC1` [F 1537, N(2'-pyrrolidino-ethyl)-2-carboxy-benzamide], in data set [2] (in words), the Solubility in ethanol result is reported as “very soluble”, the “Solubility in propylene glycol” value was “very soluble” and the Solubility in water entry is recorded as “very soluble”. In addition, the LD50 in data set [3] (setting [11]) was 500 mg/kg. Besides, in [3] (po, oral, read-out: DL 50 oral), the LD50 came out at 1000 mg/kg. Also, the change in vivo at 50 mg/kg in data set [5] was -8%.
For the compound `COc1cc(C(=O)NCCN2CCCC2)cc(OC)c1OC` [F 1538, N(2'-pyrrolidino-ethyl)-3-4-5-trimethoxy-benzamide hydrochloride], in data set [2] (in words), the Solubility in ethanol entry is “soluble”, the “Solubility in propylene glycol” value is “soluble” and the Solubility in water result is listed as “soluble”. Also, the LD50 in data set [3] (setting [11]) stood at 300 mg/kg. In [3] (po, oral, read-out: DL 50 oral), the LD50 came to 562 mg/kg. In addition, the change in vivo at 50 mg/kg in data set [5] is -1%.
As for `CC(C)(Oc1ccccc1)C(=O)NCCN1CCCC1` [F 1540, N(2'-pyrrolidino-ethyl)phenoxy-isobutyramide hydrochloride], in [2] (in words), the Solubility in ethanol entry is listed as “soluble”, the “Solubility in propylene glycol” value is listed as “soluble” and the Solubility in water result is on record as “soluble”. Moreover, the LD50 in [3] (setting [11]) was found to be 237 mg/kg. Also, in data set [3] (po, oral, read-out: DL 50 oral), the LD50 worked out at 1000 mg/kg.
Take `O=C(C=Cc1ccccc1)NCCN1CCCC1` [F 1542, N(2'-pyrrolidino-ethyl)cinnamide, HCl]: in data set [2] (in words), the Solubility in ethanol result was “very soluble”, the “Solubility in propylene glycol” value is “very soluble” and the Solubility in water entry was “very soluble”. Moreover, the LD50 in data set [3] (setting [11]) came out at 178 mg/kg. Besides, the LD50 in data set [3] (po, oral, read-out: DL 50 oral) was 1000 mg/kg. In addition, the change in vivo at 50 mg/kg in data set [5] was -19.5%.
As for `O=C(NCCN1CCCC1)C(c1ccccc1)c1ccccc1` [F 1629, N(2-pyrrolidino-ethyl)-α,α-diphenyl-acetamide pamoate], in data set [2] (in words), the Solubility in alcohol result was “Insoluble”, the “Solubility in dimethyl acetamide” value is “Soluble”, the “Solubility in methyl pyrrolidone” value is reported as “Soluble” and the Solubility in water result is “Insoluble”. Further, in data set [4], the “DL 50 intraperitoneal” value was determined as 750 mg/kg and the “DL 50 oral” value was 2000 mg/kg. In addition, the “% decrease in no. coughs in 15 mins.” value in data set [5] (50 mg/kg) was -30. In addition, the “% decrease in no. coughs in 15 mins.” value in data set [5] (100 mg/kg) was -50.
`O=C(NCCN1CCCC1)C(c1ccccc1)c1ccccc1` [F 1630, N(2-pyrrolidino-ethyl)-α,α-diphenyl-acetamide palmitate]: in data set [2] (in words), the Solubility in alcohol entry was “Poorly soluble”, the “Solubility in dimethyl acetamide” value is recorded as “Poorly soluble”, the “Solubility in methyl pyrrolidone” value is on record as “Poorly soluble” and the “Solubility in propylene glycol” value was “Poorly soluble”. Besides, the Solubility in water entry in [2] (in words) is “Insoluble”. In [4], the “DL 50 intraperitoneal” value stood at 500 mg/kg and the “DL 50 oral” value was 1500 mg/kg.

By solubility is commonly meant the dissolved amount per volume that the medium holds. Read a high solubility as much dissolved substance.
